# In US9233978B2, “6-fused heteroaryldihydropyrimidines for the treatment and prophylaxis of hepatitis B virus infection” (Hoffmann-La Roche Inc., priority 2014, dated 2016):
# Like-named read-outs stand apart in the source and are kept apart here.
# Experiments:
# [1] = test system: HBV; conditions: HBV infected transgenic mouse or humanized mouse models; cited from earlier work
# [2] = test system: CYP3A4; assay: Cytochrome P450 induction screening assay, mRNA induction in human cryopreserved hepatocytes; format: in vitro ADME; conditions: CYP3A4 mRNA relative induction, 24 hours, test compound up to 10 μM
# Experimental: Human cryopreserved hepatocytes (Life Technologies, Carlsbad, USA) were thawed and cultured in collagen I coated 96-well plates with a density of 52,000 cells/well. After attachment, medium was changed and cells were pre-cultured overnight in hepatocyte maintenance medium (HMM; Lonza, Switzerland).
# Test compounds were dosed to the cells next morning at an indicated concentration (up to 10 μM) in HMM culture media containing gentamycin and a constant 0.1% DMSO. Similarly, dilutions of the positive inducer compounds omeprazole (prototypical inducer of human CYP1A2; final concentrations: 1 and 10 μM), phenobarbital (prototypical inducer of human CYP2B6; final concentrations: 100 and 1000 μM) and rifampicin (prototypical inducer of human CYP3A4; final concentrations: 1 and 10 μM) were prepared from 1000 fold DMSO stock solutions in HMM containing gentamycin. Medium change was then performed and cells were exposed for 24 hours to test compounds, positive inducer compounds, or vehicle (0.1% DMSO), respectively.
# At the end of the compound exposure period, medium was removed and cells lysed using 100 μL/well MagNA Pure LC RNA isolation tissue lysis buffer (Roche Diagnostics AG, Rotkreuz, Switzerland). Plates were then sealed and frozen at −80° C. until further workup.
# mRNA isolation was performed using the MagNA Pure 96 system (Roche Diagnostics AG, Rotkreuz, Switzerland) and the respective cellular RNA large volume kit (Roche Diagnostics AG, Rotkreuz, Switzerland) from thawed samples diluted 1:1 with PBS. The volume of the cell lysis and an elution volume of 100 μL were used. 20 μl of the resulting mRNA suspension was then used for reverse transcription using 20 μl of the transcript or first stand cDNA synthesis kit (Roche prime Supply, Mannheim, Germany). The resulting cDNA was diluted with 40 μl of H2O before using for qRT-PCR. qRT-PCR was performed by using the forward and the reverse primer, the corresponding UPL (all from Microsynth, Balgach, Switzerland) and the Taqman Fast advanced master mix (Applied Biosystems), on an ABI 7900 machine (Applied Biosystems).
# qRT-PCR Ct-values for the respective P450s were put into relation to the Ct-value of RN18S1 (microsynth, Balgach, Switzerland) of the same sample. Doing so, a respective Δct-value was calculated. Using the average of all Δct-values for the vehicle control samples, a ΔΔct-value was calculated for each sample (ΔΔct-value(sample)=Δct-value(sample)−average of Δct-value of all vehicle controls). The fold induction of the respective sample was calculated as 2^(−ΔΔct). The individual fold induction values were then averaged per treatment condition (usually n=3 biological replicates).
# Relative induction values to the respective positive inducer compound condition (10 μM omeprazole for CYP1A2; 1000 μM Phenobarbital for CYP2B6; 10 μM rifampicin for CYP3A4) were then calculated from the fold induction values as follows: Relative induction (%)=100×(T−V)/(P−V)
# [3] = Human microsomal metabolic stability; format: in vitro ADME; conditions: human microsomes 0.5 mg/mL, 1 μM test compound, NADPH, 37° C., pH 7.4, 0-30 minutes
# Summary of the method: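 1 μM compound with 0.5 mg/mL human liver microsomal protein in 100 mM phosphate pH 7.4 at 37° C, started with 1 mM NADPH or a NADPH-regenerating system. Sampled at 0–30 min, quenched in cold methanol with tolbutamide internal standard; remaining parent quantified by LC-MS/MS.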
# [4] = test system: HepDE19 cells; assay: Cytotoxicity in HepDE19 cells (CCK-8) and selectivity index; format: cell-based; conditions: CC50 (HepDE19) value / EC50 (HepG2.2.15) value
# Summary of the method: (§1)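 HepDE19 cells (DMEM-F12, 10% FBS) were treated with compound for five days, then given CCK-8 for 2 h at 37 °C and read at OD450 and OD630. CC50 is the concentration killing 50% of host cells. Selectivity index is CC50/EC50.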
# [5] = as above; format: cell-based; conditions: human, HepDE19 cells; CCK-8 cell viability; five days after treatment
# Summary of the method: as §1
# [6] = Lysa solubility; format: physicochemical; conditions: 0.05 M phosphate buffer (pH 6.5); for solubility thermodynamic: phosphate buffer, pH 6.5, aqueous buffer, thermodynamic from solid
# Summary of the method: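 Duplicate samples dried from 10 mM DMSO stocks, taken up in 0.05 M phosphate buffer pH 6.5, stirred 1 h, shaken 2 h and left overnight. Filtrate and 1/10 dilution quantified by direct UV or HPLC-UV, in μg/mL; above 80% of the calculated maximum, reported as greater than that value.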
# [7] = test system: HBV; assay: Anti-HBV activity in vitro, HepG2.2.15 cells, extracellular HBV DNA by qPCR; format: cell-based; conditions: HepG2.2.15 cells, HBV replication inhibited by 50%, extracellular HBV DNA by qPCR, five days after compound treatment, read-out: EC50
# Summary of the method: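 HBV-producing HepG2.2.15 cells were seeded and left overnight at 37 °C, then treated with half-log serial compound dilutions at a final 0.5% DMSO. After 5 days, viral DNA was extracted from the supernatant and extracellular HBV DNA was quantified by qPCR.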
# [8] = Hepatitis B virus, HepG2.2.15, 120 h
SMILES,in vivo efficacy (HBV DNA reduction) [1],% of Positive control (10 μM Rifampicin) [2] [%],Human Microsomal Clearance [3] [mL/min/kg],Selectivity index (CC50/EC50) [4],CC50 at 5 days [5] [nM],solubility thermodynamic [6] [µg/mL],"EC50 [7, 8] [nM]",Lysa [6] [µg/mL],EC50 [7] [nM]
COC(=O)C1=C(C)NC(c2ncc(F)cc2F)=N[C@H]1c1ccc(F)cc1Cl [Bay 41-4109],demonstrated in vivo efficacy with HBV DNA reduction,,,,,,,,
"COC(=O)C1=C(CN2CCN3C(=O)N(CCC(C)(C)C(=O)O)C[C@@H]3C2)NC(c2nccs2)=N[C@H]1c1ccc(F)cc1Cl [Example 54, 4-[(8aS)-7-[[(4R)-4-(2-chloro-4-fluoro-phenyl)-5-methoxycarbonyl-2-thiazol-2-yl-1,4-dihydropyrimidin-6-yl]methyl]-3-oxo-5,6,8,8a-tetrahydro-1H-imidazo[1,5-a]pyrazin-2-yl]-2,2-dimethyl-butanoic acid]",,0,4.6,>12500,> 100000,387,8,,
"COC(=O)C1=C(CN2CCN3C(=O)N(CC4(C(=O)O)CCC4)C[C@@H]3C2)NC(c2nccs2)=N[C@H]1c1ccc(F)cc1Cl [Example 59, (R)-6-[(S)-2-(1-Carboxy-cyclobutylmethyl)-3-oxo-hexahydro-imidazo[1,5-a]pyrazin-7-ylmethyl]-4-(2-chloro-4-fluoro-phenyl)-2-thiazol-2-yl-1,4-dihydro-pyrimidine-5-carboxylic acid methyl ester]",,2.2,2.3,>9091,> 100000,> 685,11,,
"COC(=O)C1=C(CN2CCN3C(=O)N(C4CCC(C(=O)O)CC4)C[C@@H]3C2)NC(c2nccs2)=N[C@H]1c1ccc(F)cc1Cl (stereo partly drawn) [Example 73, 4-[(8aS)-7-[[(4R)-4-(2-chloro-4-fluoro-phenyl)-5-methoxycarbonyl-2-thiazol-2-yl-1,4-dihydropyrimidin-6-yl]methyl]-3-oxo-5,6,8,8a-tetrahydro-1H-imidazo[1,5-a]pyrazin-2-yl]cyclohexanecarboxylic acid]",,0,8.1,7778,70000,,,564,9
"CCOC(=O)C1=C(CN2CCN3C(=O)N(CC(C)(C)C(=O)O)C[C@@H]3C2)NC(c2nccs2)=N[C@H]1c1cccc(F)c1C [Example 76, 3-[(8aS)-7-[[(4S)-5-ethoxycarbonyl-4-(3-fluoro-2-methyl-phenyl)-2-thiazol-2-yl-1,4-dihydropyrimidin-6-yl]methyl]-3-oxo-5,6,8,8a-tetrahydro-1H-imidazo[1,5-a]pyrazin-2-yl]-2,2-dimethyl-propanoic acid]",,1.3,0.8,>14286,> 100000,565,7,,
